Results on 1 substance are retold here after patent US20120070449A1, “METHODS OF TREATING INFLAMMATION” (Yeda Research And Development Co. Ltd., priority 2009, published 2012).

In assay [1] the test system is CD151. Kind of assay: CD151 mRNA expression in T cells (DNA chip array, RT-PCR, real-time PCR). The format is cell-based, mouse. As for the experimental part:
(§1) 1×10^7 T cells from control C57BL/6 or CCR2−/− mice were suspended in 1 ml RPMI medium containing 10% (v/v) FCS. Next, 1 ng/ml of CCL2 (PeproTech) was added to half of the tubes (the other half was kept as a control), and the tubes were placed at 37° C. for different time periods (see the results section below). After incubation, the cells were washed and used for the different experiments.
Total RNA was isolated from cells using the Tri reagent kit (Molecular Research Center, Inc). Reverse transcription was carried out using Superscript II RT (Gibco-BRL) and the primers: […]
To obtain differential expression data of the T cells following CCL2 incubation, the differences between mRNA levels in this cell population were identified by screening mouse DNA chip arrays using the Affymatrix genechip expression analysis system (mouse 430 A2.0). The system consisted of two parameters: probe array and RNA target. Probe array included approximately 20,000 murine genes and ESTs. Each gene or EST was analyzed with approximately 20 pairs of specific, unique 25 mer-oligonucleotides probe. Each probe type was located in a specific area called probe cell. Each probe cell contained millions of copies of a given probe. All probe cells together made up the probe array (Affymetrix Genechip Expression Technical Manual). RNA from CCL2 treated T cells and from control T cells was converted to cDNA and then in vitro transcribed while labeled with biotin (see methods for RNA isolation and cells separation). The target RNA was hybridized to the probe array. The hybridized probe array was stained with streptavidin phycoerythrin conjugate and scanned by the GeneArray scanner. The amount of light emitted was proportional to the bound target at each location on the probe array. The two populations were compared according to the hybridization intensity in each cell.
mRNA levels of actin and CD151 were analyzed by quantitative real-time RT-PCR using a Light-Cycler instrument (Roche Diagnostics, Mannheim, Germany). […]

In a further assay the test system is β-catenin. Briefly: Detection of β-catenin phosphorylation in T cells. The format is cell-based, mouse. The settings on record: CCL2 1 ng/ml 10 minutes before activating anti-CD151 5 minutes, FIG. 4F. Here is the method: 1×10^7 T cells were suspended in 1 ml RPMI medium containing 10% (v/v) FCS. The cells were stimulated with either 2 μg/ml anti-CD151 (Santa Cruz) or an isotype control antibody IgG rabbit anti mouse (ImmunoResearch Labs.inc). Thereafter, the cells were immediately placed at 37° C. for 5 minutes. Immediately after stimulation, the cells were fast frozen in liquid N2 and were lysed in lysis buffer containing: 25 mM Tris, pH 7.4; 2 mM Vanadate; 75 mM glycophosphate, pH 7.2; 2 mM EDTA; 2 mM EGTA; 10 mM NaPPi; and 0.5% NP-40, in the presence of the following protease inhibitors: 10 mg/ml Leupeptin; 10 mg/ml aprotinin; 10 mg/ml pepstatin; 10 mg/ml chymostatin (Roche); 1 mM PMSF (Sigma); and 20 mM N-etheyl-melamide (Sigma).
Protein G-Sepharose beads (GE Healthcare) were conjugated to Tyr (P) monoclonal antibody (Santa Cruz) for 2 hours at 4° C., followed by three washes in phosphate-buffered saline. Beads were added to the cell lysates and proteins were immunoprecipitated overnight. The protein G-bound material was washed three times with phosphate-buffered saline containing 0.1% SDS and 0.5% Nonidet P-40. Immunoprecipitates were separated by SDS-PAGE. The protein bands were transferred onto a nitrocellulose membrane and probed with anti β-cat (BD Transduction Laboratories) followed by horseradish peroxidase-conjugated anti-mouse IgG (Jackson ImmunoResearch Labs, West Grove, Pa.). […]

The test system of the next assay is T cells. Briefly: Cytoskeleton rearrangement: CCL21-induced actin polymerization (FITC-phalloidin, flow cytometry). It counts as cell-based, mouse. As for the experimental part: T cells were pre-incubated in the presence or absence of CCL2 (1 ng/ml, PeproTech) for 1 hour and were then stimulated with CCL21 (SLC, 100 ng/ml, PeproTech). Cells were fixed by 3.7% formaldehyde solution (Merck) and cytoskeleton rearrangement was analyzed by flow cytometry following staining with fluorescein isothiocyanate (FITC)-phalloidin, as was previously described [Flaishon et al., J. Biol. Chem. (2001) 276: 46701-46706].
For CD151 activation leading to cytoskeletal rearrangement-T cells were pretreated with either 2 μg/ml of activating antibody specific for the extracellular domain of CD151 (Santa Cruz) or with an isotype control antibody IgG rabbit anti mouse (ImmunoResearch Labs.inc)/anti CUL1 (Santa Cruz) for 1 hour/20 hours.
For blocking CD151− T cells were pretreated for 1 hour with 10 μg/ml blocking anti-CD151 antibody (BD pharmingen) or with 10 μg/ml control antibody anti-IgG (ImmunoResearch Labs.inc)/anti KPL1 (Chemicon).
Next, a 100 ng/ml chemokine CCL21 (SLC, PeproTech) stimulation was carried out and the cells were fixed by 3.7% formaldehyde solution (Merck), permeabilized and stained with fluorescein isothiocyanate (FITC)-phalloidin, as was previously described [Flaishon et al., J. Biol. Chem. (2001) 276: 46701-46706]. Cytoskeleton rearrangement was analyzed by flow cytometry.
1×10^7 T cells were incubated in the presence or absence of CCL2 for 10 minutes, followed by stimulation with either activating anti-CD151 (Santa Cruz, 2 μg/ml) or an isotype control antibody IgG rabbit anti mouse (ImmunoResearch Labs.inc, 2 μg/ml) for 1 hour. The cells were then stimulated with CCL21 (100 ng/ml) and actin polymerization was analyzed.
Cells were fixed by 3.7% formaldehyde solution (Merck), and cytoskeleton rearrangement was analyzed by flow cytometry following staining with fluorescein isothiocyanate (FITC)-phalloidin, as was previously described [Flaishon et al. (2001), supra].

Assay [2] has as its system CD151. Kind of assay: CD151 cell surface expression on T cells (flow cytometry). The format is cell-based, mouse. The settings on record: CCL2 1 ng/ml. As for the experimental part:
Freshly isolated T cells were pre-incubated in the presence or absence of CCL2 (1 ng/ml, PeproTech) for several time periods (see the results section below). After incubation the cells were double stained with anti-CD3 (Pharmagene) and anti-CD151 (Santa Cruz) and the secondary antibody alexa goat anti rabbit (Invitrogene) was used. Expression of the stained proteins was analyzed by flow cytometry.

The subject of a further assay is T lymphocyte. To be noted: picomolar levels of CCL2; Flaishon et al. 2008, WO 2008/012796; cited from earlier work.
A further assay concerns LFA-1. Briefly: Laminar flow adhesion assay: LFA-1 mediated adhesion to ICAM-1 triggered by CCL21. The format is cell-based. The settings on record: mouse T cells pre-treated, FIGS. 4G-J. As for the experimental part:
Purified ICAM-1-Fc (R&D Systems, Minneapolis, Minn.) were coated alone or with mouse CCL21 (R&D Systems) on polystyrene plates, as previously described [Grabovsky V et al. (2000) J Exp Med. 192, 495-506; Sigal A et al. (2000) J. Immunol. 165, 442-452]. The polystyrene plates were each assembled on the lower wall of the flow chamber as previously described [Feigelson S W et al. (2001) J Biol. Chem. 276, 13891-13901]. All flow experiments were conducted at 37° C.
Mouse T cells were purified and re-suspended in HBSS++ (HBSS, Mg^2+Ca^2+) with ICAM-1-Fc or mCCL2 for 1 hr. Cells were then perfused through the flow chamber at low shear stress (0.5-0.75 dyn/cm2) for 2 min. Tethers were defined as transient or rolling if cells attached briefly (less than 2 seconds) to the substrate, and as arrests if cells immediately arrested and remained stationary for at least 5 seconds of continuous flow. To assess adhesion strengthening, post arrest resistance to detachment over time was determined. Accumulated cells were subjected to a shear stress of 5 dyn/cm^2 for 10 minutes. At the indicated time points, the number of cells that remained bound was expressed relative to T cell population originally accumulated in the first 2 minutes of the assay.

A further assay relates to CD151/VLA4 complex. Kind of assay: Co-immunoprecipitation of CD151 with β1 integrin (CD151/VLA4 complex). The format is cell-based, mouse. Here is the method:
as §1
Stimulated frozen cells were lysed in lysis buffer containing: 25 mM Tris, pH 7.4; 2 mM Vanadate; 75 mM glycophosphate, pH 7.2; 2 mM EDTA; 2 mM EGTA; 10 mM NaPPi; and 0.5% NP-40, in the presence of the following protease inhibitors: 10 mg/ml Leupeptin; 10 mg/ml aprotinin; 10 mg/ml pepstatin; 10 mg/ml chymostatin (Roche); 1 mM PMSF (Sigma); and 20 mM N-etheyl-melamide (Sigma).
Protein G-Sepharose beads (GE Healthcare) were conjugated to Tyr (P) monoclonal antibody (Santa Cruz) or to anti-CD151 (Santa Cruz) for 2 hours at 4° C. followed by three washes in phosphate-buffered saline. Beads were added to the cell lysates and proteins were immunoprecipitated overnight. The protein G-bound material was washed three times with phosphate-buffered saline containing 0.1% SDS and 0.5% Nonidet P-40. Immunoprecipitates were separated by SDS-PAGE. […]

For assay [3] the following is noted: picomolar circulating CCL2; Flaishon et al. 2008, WO 2008/012796; cited from earlier work.

As for “CCL2: chemokine, also called Macrophage Chemotactic Protein-1 or MCP-1 (PeproTech), used at picomolar levels, 1 ng/ml”, the “transcription of CD151 (RT-PCR)” value is “no inhibition was observed” with CD151 [1] (CCR2-/- T cells, pM CCL2, FIG. 1D); “downregulated following 2 and 4 hour incubations” in the assay with CD151 [1] (control naive T cells, pM CCL2, 1, 2 or 4 hours, FIG. 1C). Also, the “differential gene expression of CD151 (DNA chip array)” value in the assay on CD151 [1] (T cells incubated 2 hours with CCL2) is recorded as “downregulated”. Moreover, the “β-catenin phosphorylation induced by CD151 activation” value with β-catenin was “completely abolished”. The “actin polymerization elevation induced by CD151 activation” value was “not apparent” in the assay with T cells (CCR2-/- T cells, CCL2 10 minutes before activating anti-CD151, FIG. 4D); “maintained” with T cells (control T cells, longer CCL2 incubation (20 hours), FIG. 4E); “completely abolished” in the assay on T cells (control T cells, pM CCL2 10 minutes before activating anti-CD151 1 hour, then CCL21, FIG. 4C). Moreover, the CCL21-induced actin polymerization entry in the assay with T cells (control T cells, CCL2 1 ng/ml (pM levels) 1 hour, then CCL21 100 ng/ml, FIGS. 1A-B) is listed as “suppressed actin polymerization”. Besides, the “CD151 cell surface expression” value is recorded as “no change was detected” in the assay on CD151 [2] (CCR2-/- T cells, FIG. 1G) and “downregulated CD151 cell surface expression levels” with CD151 [2] (control T cells, different time periods, FIGS. 1E-F). For the same substance, the “T lymphocyte homing to peripheral lymph nodes” value in the assay on T lymphocyte is “inhibit T lymphocyte homing to peripheral lymph nodes”. In the assay with LFA-1 (continuous/high shear stress), the “adhesion strengthening after arrest (resistance to detachment)” value is “failed to remain firmly adhered”. Moreover, the “LFA-1 activation by surface bound CCL21 (arrest/accumulation on ICAM-1)” value in the assay with LFA-1 (low shear stress) is listed as “minor effect”. The “CD151/VLA4 complex (β1 integrin pulled down with CD151)” value in the assay on CD151/VLA4 complex (CCR2-/- T cells incubated with CCL2, FIG. 4B) was “no effect”; in the assay on CD151/VLA4 complex (control T cells incubated with CCL2, several time periods, FIG. 4A), “disappearance of the CD151/VLA4 complex”. In addition, in assay [3], the “progression of asthma and adjuvant arthritis” value is “attenuated progression of both asthma and adjuvant arthritis”.
